Reference: ChEMBL document CHEMBL1201862, “PubChem BioAssay data set” (2004)
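Test compounds were applied to cells in 96-well plates for 48 hours at 5 doses. GI50: concentration for 50% inhibition of growth.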 Calls of active or inactive are those of the source. Rule as the data show it: active = GI50 up to about 1.1 µM and inactive = higher.

Experiments:
Test in all cases: DTP human tumour cell line panel, 48 h
SF-268 = system: SF-268
TK-10 = system: TK-10
CAKI-1 = system: CAKI-1
OVCAR-4 = system: OVCAR-4
SK-OV-3 = system: SK-OV-3
HT-29 = system: HT-29
DLD-1 = system: DLD-1
HL-60 = system: HL-60
HCT-116 = system: HCT-116
DMS-273 = system: DMS-273
OVCAR-5 = system: OVCAR-5
K562 = system: K562
MOLT-4 = system: MOLT-4
CCRF-CEM = system: CCRF-CEM
A549 = system: A549
A498 = system: A498
OVCAR-8 = system: OVCAR-8
SNB-75 = system: SNB-75
NCI-H23 = system: NCI-H23
RXF 393 = system: RXF 393
NCI-H522 = system: NCI-H522
SW-620 = system: SW-620
COLO 205 = system: COLO 205
ACHN = system: ACHN
SNB-19 = system: SNB-19
NCI-H460 = system: NCI-H460
IGROV-1 = system: IGROV-1
HOP-92 = system: HOP-92
UACC-62 = system: UACC-62
RPMI-8226 = system: RPMI-8226
HOP-62 = system: HOP-62
SK-MEL-5 = system: SK-MEL-5
OVCAR-3 = system: OVCAR-3
LOX IMVI = system: LOX IMVI
SF-295 = system: SF-295
SK-MEL-2 = system: SK-MEL-2
UACC-257 = system: UACC-257
KM-20L2 = system: KM-20L2
HCC 2998 = system: HCC 2998
UO-31 = system: UO-31
EKVX = system: EKVX
M14 = system: M14
HCT-15 = system: HCT-15
XF498 = system: XF498
SN12C = system: SN12C
Malme-3M = system: Malme-3M
LXFL 529 = system: LXFL 529
U-251 = system: U-251
HOP-18 = system: HOP-18
SNB-78 = system: SNB-78
DMS-114 = system: DMS-114
SK-MEL-28 = system: SK-MEL-28
M19-MEL = system: M19-MEL
NCI-H226 = system: NCI-H226
KM12 = system: KM12
SR = system: SR
SF-539 = system: SF-539

## Cc1ccc(C)c(C(=O)CC2OC(O)C(Cl)C2Cl)c1 (configuration not stated)
SF-268
  GI50: > 100 µM (inactive)
TK-10
  GI50: > 100 µM (inactive)
CAKI-1
  GI50: 30.4 µM (inactive)
OVCAR-4
  GI50: > 100 µM (inactive)
SK-OV-3
  GI50: > 100 µM (inactive)
HT-29
  GI50: > 100 µM (inactive)
DLD-1
  GI50: 17.1 µM (inactive)
HL-60
  GI50: 20.6 µM (inactive)
HCT-116
  GI50: 29.7 µM (inactive)
DMS-273
  GI50: 63.1 µM (inactive)
OVCAR-5
  GI50: > 100 µM (inactive)
K562
  GI50: 32.5 µM (inactive)
MOLT-4
  GI50: 8.65 µM (inactive)
CCRF-CEM
  GI50: 41.1 µM (inactive)
A549
  GI50: > 100 µM (inactive)
A498
  GI50: > 100 µM (inactive)
OVCAR-8
  GI50: 18.3 µM (inactive)
SNB-75
  GI50: 52 µM (inactive)
NCI-H23
  GI50: > 100 µM (inactive)
RXF 393
  GI50: 26.2 µM (inactive)
NCI-H522
  GI50: 15.6 µM (inactive)
SW-620
  GI50: 18.7 µM (inactive)
COLO 205
  GI50: > 100 µM (inactive)
ACHN
  GI50: 42.5 µM (inactive)
SNB-19
  GI50: > 100 µM (inactive)
NCI-H460
  GI50: > 100 µM (inactive)
IGROV-1
  GI50: > 100 µM (inactive)
HOP-92
  GI50: 30.6 µM (inactive)
UACC-62
  GI50: 57.3 µM (inactive)
RPMI-8226
  GI50: 12.4 µM (inactive)
HOP-62
  GI50: > 100 µM (inactive)
SK-MEL-5
  GI50: > 100 µM (inactive)
OVCAR-3
  GI50: 36.6 µM (inactive)
LOX IMVI
  GI50: 18.9 µM (inactive)
SF-295
  GI50: > 100 µM (inactive)
SK-MEL-2
  GI50: 84.5 µM (inactive)
UACC-257
  GI50: > 100 µM (inactive)
KM-20L2
  GI50: > 100 µM (inactive)
HCC 2998
  GI50: > 100 µM (inactive)
UO-31
  GI50: > 100 µM (inactive)
EKVX
  GI50: > 100 µM (inactive)
M14
  GI50: > 100 µM (inactive)
HCT-15
  GI50: 34.8 µM
XF498
  GI50: > 100 µM (inactive)
SN12C
  GI50: 5.7 µM (inactive)
Malme-3M
  GI50: 67.5 µM (inactive)
LXFL 529
  GI50: 17.4 µM (inactive)
U-251
  GI50: > 100 µM (inactive)
HOP-18
  GI50: > 100 µM (inactive)
SNB-78
  GI50: 60.1 µM (inactive)
DMS-114
  GI50: > 100 µM (inactive)
SK-MEL-28
  GI50: 39.5 µM (inactive)
M19-MEL
  GI50: 72.3 µM (inactive)
NCI-H226
  GI50: > 100 µM (inactive)
KM12
  GI50: > 100 µM (inactive)
SR
  GI50: 44 µM (inactive)
SF-539
  GI50: 24 µM (inactive)
